The test system of one test is IL-13 mRNA. Kind of test: IL-13 mRNA in esophageal biopsy specimens of FP-treated EE patients, real-time PCR. It counts as in vivo, human. To be noted: patients with EE treated successfully with FP. How it is done: (§1) For each patient, one distal esophageal mucosal biopsy sample was immersed in RNA, later RNA stabilization reagent (Qiagen) and stored at 4 C. for <15 days. Total RNA was extracted using the RNAeasy Mini Kit (Qiagen) according to the manufacturer's recommendations. Hybridization to DNA microarray was performed by the MicroarrayCore at Cincinnati Children's Hospital Medical Center, as previously reported Blanchard, C. et al., (2006) J. Clin. Invest. 116: 536-547. The genome wide human Affymetrix U133A plus 2.0 Genechip® was used, and gene transcript levels were determined using algorithms in the Microarray Analysis Suite and GeneSpring software (Silicon Genetics) as previously described Blanchard, C. et al., (2006) J. Clin. Invest. 116: 536-547. […] Response to therapy was defined as <1 eosinophils/high power field (hpf) and no epithelial cell hyperplasia as described herein.
(§2) (rev) […]; IL-13R2 (396 bp): (fwd): […] (rev) […]; IL-4Rα (335 bp): (fwd): […]
(§3) Wood, N. et al., (2003) J. Exp. Med. 197: 703-709. In patients with EE with successful anti-inflammatory intervention, IL-13 overexperssion can be normalized. […] Similarly, eotaxin-3 mRNA was normalized in FP-responder patients (P<0.01; FIG. 6B). […] Remarkably, 98% of the EE transcriptome was reversed to expression levels detected in biopsy specimens of healthy patients (FIG. 6C). […]

Another test concerns EE transcriptome. Kind of test: Microarray analysis of the EE transcriptome in successfully treated EE patients. Format: in vivo, human. On the procedure:
as §1, with “herein. […] Wood, N. et al., (2003) J. Exp. Med. 197: 703-709. In patients with EE with successful anti-inflammatory intervention, IL-13 overexperssion can be normalized. […] Similarly, eotaxin-3 mRNA was normalized in FP-responder patients (P<0.01; FIG. 6B). […] Remarkably, 98% of the EE transcriptome was reversed to expression levels detected in biopsy specimens of healthy patients (FIG. 6C). […]” for “herein.”

The next test deals with cadherin-26 (CDH26). Kind of test: Cadherin-26 expression in FP-treated EE patients, real-time PCR. To be noted: P<0.05. It counts as in vivo, human.
Text: as §2
Wood, N. et al., (2003) J. Exp. Med. 197: 703-709. In patients with EE with successful anti-inflammatory intervention, IL-13 overexperssion can be normalized. […] Similarly, eotaxin-3 mRNA was normalized in FP-responder patients (P<0.01; FIG. 6B). The research next aimed to determine whether the EE transcriptome was also reversible in patients with EE successfully treated with glucocorticoids. Remarkably, 98% of the EE transcriptome was reversed to expression levels detected in biopsy specimens of healthy patients (FIG. 6C). The reversible genes include cell-specific transcripts, including eosinophil, mast cell, lymphocyte, fibroblast, and epithelial genes. In addition, genes involved in cellular recruitment and cell proliferation were also reversible. Although the biopsy specimens had no abnormal microscopic features, 12 genes were still dysregulated (FIG. 6B).
(In general: In qPCR the cycle at which signal appears reflects the starting amount.)

The subject of another test is eotaxin-3 mRNA. Kind of test: Eotaxin-3 mRNA in esophageal biopsy specimens of FP-treated EE patients, real-time PCR. It counts as in vivo, human. The settings on record: P<0.01. On the procedure:
as §1, §2, §3

The next test deals with patients with EE. To be noted: in vivo; cited from earlier work.

These results are taken from US20120004205A1, “IL-13 INDUCED GENE SIGNATURE FOR EOSINOPHILIC ESOPHAGITIS” (Cincinnati Children's Hospital Medical Center, priority 2008, published 2012).

For `CCC(=O)O[C@]1(C(=O)SCF)[C@H](C)C[C@H]2[C@@H]3C[C@H](F)C4=CC(=O)C=C[C@]4(C)[C@@]3(F)[C@@H](O)C[C@@]21C` [FP, S-fluoromethyl-6α,9-difluoro-11β-hydroxy-16α-methyl-3-oxo androsta-1,4-diene-17β-carbothioate, 17-propionate], the “IL-13 mRNA levels in EE responders compared with untreated specimens” value with IL-13 mRNA is “significantly (P<0.01) reduced”. The “EE transcriptome reversed to expression levels of healthy patients” value in the test on EE transcriptome (patients with EE successfully treated with glucocorticoids) is recorded as 98%. For the same molecule, the “genes still dysregulated after treatment” value in the test on EE transcriptome (successfully treated EE patients, fold change filter 2) worked out at 12 genes. Moreover, the “cadherin-26 expression in FP-treated patients with EE” value in the test on cadherin-26 (CDH26) is “residual upregulation”. The “eotaxin-3 mRNA in FP-responder patients” value in the test on eotaxin-3 mRNA is recorded as “normalized”. Also, in the test with patients with EE, the “EE disease remission compared with placebo treatment” value is reported as “induces EE disease remission”.
